Experimental data reported in US12286455B2, “Anthelmintic depsipeptide compounds” (BOEHRINGER INGELHEIM ANIMAL HEALTH USA INC., priority 2015, dated 2025).

Columns and labels:
[1] = test system: Dirofilaria immitis R isolate (reduced sensitivity to macrocyclic lactones); test: Method D study 1: efficacy against induced D. immitis infection in beagle dogs (R isolate); assay type: in vivo; conditions: beagles
[2] = test system: Dirofilaria immitis S isolate (sensitive to macrocyclic lactones); test: Method D study 2: efficacy against induced D. immitis infection in beagle dogs (S isolate); assay type: in vivo; conditions: beagles
[3] = oral solution 2.5 mg/kg + ivermectin 6 μg/kg, days 0, 32, 60, 90 & 119, necropsy Day 150

Compound	Efficacy [1, 3] [%]	also measured
CC(C)C[C@H]1C(=O)O[C@H](C)C(=O)N(C)[C@@H](CC(C)(C)F)C(=O)O[C@H](Cc2ccc(C(F)(F)F)cc2)C(=O)N(C)[C@@H](CC(C)C)C(=O)O[C@H](C)C(=O)N(C)[C@@H](CC(C)(C)F)C(=O)O[C@H](Cc2ccc(C(F)(F)F)cc2)C(=O)N1C [Compound 4-18]	100	–
CC(C)C[C@H]1C(=O)O[C@H](C)C(=O)N(C)[C@@H](CC(C)(C)F)C(=O)O[C@H](Cc2ccc(N3CCOCC3)cc2)C(=O)N(C)[C@@H](CC(C)C)C(=O)O[C@H](C)C(=O)N(C)[C@@H](CC(C)(C)F)C(=O)O[C@H](Cc2ccc(N3CCOCC3)cc2)C(=O)N1C [Compound 6-18]	100	–
CC(C)C[C@H]1C(=O)O[C@H](C)C(=O)N(C)[C@@H](CC(C)(C)F)C(=O)O[C@H](Cc2ccc(C3CCOCC3)cc2)C(=O)N(C)[C@@H](CC(C)C)C(=O)O[C@H](C)C(=O)N(C)[C@@H](CC(C)(C)F)C(=O)O[C@H](Cc2ccc(C3CCOCC3)cc2)C(=O)N1C [Compound 7-18]	–	Efficacy ([2]; oral solution 0.5 mg/kg, days 0, 30, 60, 90 & 120, necropsy Day 155): 100%; Efficacy ([2]; oral solution 2.5 mg/kg, days 0, 30, 60 & 154, necropsy Day 155): 100%; Efficacy ([1]; oral solution 1.0 mg/kg + ivermectin 6 μg/kg, days 0, 32, 60, 90 & 119, necropsy Day 150): 100%
CC(C)C[C@H]1C(=O)O[C@H](Cc2ccc(C3CCOCC3)cc2)C(=O)N(C)[C@@H](CC(C)C)C(=O)O[C@H](C)C(=O)N(C)[C@@H](CC(C)C)C(=O)O[C@H](Cc2ccc(C3CCOCC3)cc2)C(=O)N(C)[C@@H](CC(C)C)C(=O)O[C@H](C)C(=O)N1C [Compound 7-27]	100	–
CC(C)C[C@H]1C(=O)O[C@H](Cc2ccc(N3CCOCC3)cc2)C(=O)N(C)[C@@H](CC(C)C)C(=O)O[C@H](C)C(=O)N(C)[C@@H](CC(C)C)C(=O)O[C@H](Cc2ccc(N3CCOCC3)cc2)C(=O)N(C)[C@@H](CC(C)C)C(=O)O[C@H](C)C(=O)N1C [emodepside, reference compound]	98.8	Efficacy ([1]; oral solution 2.5 mg/kg + ivermectin 6 μg/kg, days 0, 32, 60, 90 & 119, necropsy Day 150, listed as Emodepside): 98.8%
